Source: patent US7887835B2, “Compound comprising a fluorine-substituted alkyl group and a liposome contrast medium comprising the compound” (priority 2006, dated 2011)
Like-named read-outs stand apart in the source and are kept apart here.

Key:
[1] = Preparation of liposome: maximum amount of compound forming liposome, particle size; format: physicochemical; conditions: with dipalmitoyl-PC 50 nmol + dipalmitoyl-PS 50 nmol, 0.9% physiological saline, ultrasonicated
Protocol: According to the method described in J. Med. Chem., 25 (12), 1500 (1982), the disclosure of which is expressly incorporated by reference herein in its entirety, dipalmitoyl-PC (Funakoshi, No. 1201-41-0225), dipalmitoyl-PS (Funakoshi, No. 1201-42-0237), and the compound of the present invention, in the ratio described below, were dissolved in chloroform contained in an eggplant-shaped flask to obtain a uniform solution, and then the solvent was evaporated under reduced pressure to obtain a thin membrane formed on the bottom of the flask. The thin membrane was dried in vacuo, then added with an appropriate volume of 0.9% physiological saline (Hikari Pharmaceutical, No. 512) and ultrasonicated (probe type oscillator, Branson, No. 3542, 0.1 mW) for 5 minute with ice cooling to obtain a uniform liposome dispersion. Size of the particles contained in the resulting dispersion was measured by using WBC analyzer (Nihon Kohden, A-1042). The particle sizes were 85 to 110 nm.
Liposome formulation having the ratio of PC:PS:Compound d1-6=50:50:40 (nmol), and a particle sizes of 85 to 120 nm are prepared from a chloroform solution of PC (dipalmitoyl-phosphatidylcholine Funakoshi, No. 850355C), PS (dipalmitoyl-phosphatidylserine Funakoshi, No. 840037C), and Compound d1-6.

[2] = tested on: vascular smooth muscle cells; test: Introduced amount of the compounds to vascular smooth muscle cells (mixture culture with macrophage); format: cell-based; conditions: liposome PC 50 nmol + PS 50 nmol + compound, 37° C., 5% CO2, 24 hours
Protocol: The above liposome agent was added to a mixture culture system of vascular smooth muscle cells and macrophage, described in WO 01/082897, the disclosure of which is expressly incorporated by reference herein in its entirety. After cultivation under 37° C., 5% CO2 for 24 hours, the amount of the compounds introduced to the vascular smooth muscle cells were quantitated.

[3] = tested on: ICR male mice; format: in vivo
Protocol: Six-week old ICR male mice (Charles River Japan) were purchased, and after quarantine for 1 week, acclimatized for 1 week in a clean animal cage (air-conditioning: HEPA filter of class 1000, room temperature: 20 to 24° C., humidity: 35 to 60%). Then, in order to obtain the MTD value, a suspension of the test compound was administered from the caudal vein. The suspension was administered by using physiological saline (Hikari Pharmaceutical) or a glucose solution (Otsuka Pharmaceutical) as a medium. On the basis of the MTD value obtained, the suspension was administered everyday from the caudal vein for three consecutive days in an amount corresponding to ½ of the MTD value (n=3). Symptoms were observed up to 6 hours after each administration to observe neurotoxicity, and then autopsy was performed to examine major organs.
Compound (MTD (mg/kg)): neurotoxicity (“−” indicates negative for neurotoxicity, and “+” indicate positive for neurotoxicity)

[4] = suspension administered from the caudal vein, ICR male mice

Row | Structure (SMILES) | Maximum amount forming liposome [1] [nmol] | Introduced amount [2] [nmol/mg protein] | MTD [3, 4] [mg/kg] | MTD ([3]; mouse, in vivo) [mg/kg]
1 | CC(C)CCC[C@@H](C)[C@H]1CC[C@H]2[C@@H]3CC=C4C[C@@H](OC(=O)Oc5cc(C(F)(F)F)cc(C(F)(F)F)c5)CC[C@]4(C)[C@H]3CC[C@]12C [Compound b1-1] | 40 | 17.5 | 400 | –
2 | CC(C)CCC[C@@H](C)[C@H]1CC[C@H]2[C@@H]3CC=C4C[C@@H](OC(=O)CCCCCCCCCC(C)Oc5cc(C(F)(F)F)cc(C(F)(F)F)c5)CC[C@]4(C)[C@H]3CC[C@]12C (some centres unmarked) [Compound b1-8] | 20 | 8.9 | 400 | –
3 | CC(C)CCC[C@@H](C)[C@H]1CC[C@H]2[C@@H]3CC=C4C[C@@H](OC(=O)CCC(=O)Oc5cc(C(F)(F)F)cc(C(F)(F)F)c5)CC[C@]4(C)[C@H]3CC[C@]12C [Compound b4-2] | 20 | 10.6 | 400 | –
4 | O=C(CCCCCCCC(F)(F)C(F)(F)C(F)(F)C(F)(F)C(F)(F)C(F)(F)F)OCC(COC(=O)CN1CCOCC1)OC(=O)CCCCCCCC(F)(F)C(F)(F)C(F)(F)C(F)(F)C(F)(F)C(F)(F)F (centres unmarked) [Compound e1-6] | 40 | – | – | 400
